According to patent US10933059B2, “Combination, application thereof and treatment method” (KANGPU BIOPHARMACEUTICALS, LTD., priority 2016, dated 2021):

Tested on: Vcap cells
Assay: CTG cell proliferation assay on Vcap cells (compounds alone or in combination, 5 days)
Format: cell-based
Details: for viability at 0.1 µM / viability at 1 µM / viability at 10 µM: Homo sapiens, VCaP, 120 h, read-out: Survival rate of Vcap cells
Experimental: In vitro test of the inhibition effect of the compound in combination with androgen receptor pathway modulators on the prostate cancer cell proliferation.
Inhibition effect of the compounds such as B101, B102, B103, B104, B105, B106, C111 and the like, androgen receptor pathway modulators, hormone compounds, alone or in combination with each other on the prostate cancer cell proliferation were tested on Vcap cells (androgen receptor (+) prostate cancer cells) (ATCC, catalogue number CRL-2876). The specific experimental operation was as follows: 5×10^3 Vcap cells per well were inoculated into 96-well plates with transparent bottom and white wall (Corning, catalogue number CLS3903) containing the specific medium, and were cultured in a 37° C., 5% CO2 incubator for 24 hours. The tested compounds and the androgen receptor pathway modulators were prepared to a 150 mM stocking solution with DMSO (Sigma, catalogue number 276855), diluted with culture medium to the desired concentrations (the final concentration of DMSO is 0.2%), and then added to each well, 2 wells/concentration, followed by being incubated in a 37° C., 5% CO2 incubator for 5 days. The tested compounds were used alone or in combination with other androgen receptor pathway modulators and/or hormone compounds respectively. […] After that, 100 μl of CellTiter-Glo® cell viability assay reagent (Promega, catalogue number G7570) was added to each well and mixed well on a vibrator for 10 minutes to induce cell lysis. The 96-well plate was placed at room temperature for 10 minutes, so as to stabilize its luminescence signal. A white bottom membrane was pasted on the bottom of the plate and the plate was tested using EnSpire.

[1] = tested compound 0.1 μM in combination with 1 μM ARN-509
[2] = tested compound 0.1 μM in combination with 1 μM Enzalutamide
[3] = tested compound 1 μM in combination with 1 μM ARN-509
[4] = tested compound 1 μM in combination with 1 μM Enzalutamide
[5] = tested compound 10 μM in combination with 1 μM ARN-509
[6] = tested compound 10 μM in combination with 1 μM Enzalutamide

Row | SMILES | Survival rate of Vcap cells (tested compound 0.1 μM in combination with 1 μM B101) [%] | Survival rate of Vcap cells (tested compound 0.1 μM in combination with 1 μM B105) [%] | Survival rate of Vcap cells (tested compound 1 μM in combination with 1 μM B101) [%] | Survival rate of Vcap cells (tested compound 1 μM in combination with 1 μM B105) [%] | Survival rate of Vcap cells (tested compound 10 μM in combination with 1 μM B101) [%] | Survival rate of Vcap cells (tested compound 10 μM in combination with 1 μM B105) [%] | Survival rate of Vcap cells (tested compound alone, 0.1 μM) [%] | Survival rate of Vcap cells (tested compound alone, 1 μM) [%] | Survival rate of Vcap cells (tested compound alone, 10 μM) [%] | viability at 0.1 µM (tested compound alone, 0.1 μM) [%] | viability at 1 µM (tested compound alone, 1 μM) [%] | viability at 10 µM (tested compound alone, 10 μM) [%] | Survival rate of Vcap cells [1] [%] | Survival rate of Vcap cells [2] [%] | Survival rate of Vcap cells [3] [%] | Survival rate of Vcap cells [4] [%] | Survival rate of Vcap cells [5] [%] | Survival rate of Vcap cells [6] [%]
1 | CC(=O)Nc1ccc(OC[C@](C)(O)C(=O)Nc2ccc([N+](=O)[O-])c(C(F)(F)F)c2)cc1 [Andarine, reference compound] | 69.8 | 71.1 | 65.5 | 64.6 | 53.8 | 53.5 | 85.6 | 82.7 | 69.4 | – | – | – | – | – | – | – | – | –
2 | Nc1cc(F)cc2c1CN([C@H]1CCC(=O)NC1=O)C2=O [B102] | – | – | – | – | – | – | – | 80.9 | – | 84.7 | 80.9 | 78.4 | 47.2 | 46.3 | 40.2 | 41.1 | 38.3 | 40.1
3 | Nc1cc(F)cc2c1CN([C@@H]1CCC(=O)NC1=O)C2=O [B103] | – | – | – | – | – | – | – | 84.1 | – | 86.3 | 84.1 | 85.5 | 48.8 | 50.2 | 41.7 | 42.7 | 38.3 | 42.9
4 | [2H]C1(N2Cc3c(N)cc(F)cc3C2=O)CCC(=O)NC1=O (stereo not shown) [B104] | – | – | – | – | – | – | – | 77.4 | – | 84.4 | 77.4 | 74 | 45.7 | 47.1 | 40.5 | 41.2 | 37.8 | 38.8
5 | [2H][C@@]1(N2Cc3c(N)cc(F)cc3C2=O)CCC(=O)NC1=O [B106] | – | – | – | – | – | – | – | 79.0 | – | 86.8 | 79 | 74.1 | 50.6 | 50.6 | 41.1 | 40.5 | 39.9 | 38.2
